From PubChem BioAssay AID248 (DTP/NCI, 2004)
Inconclusive results and toxic doses are left out. No stated cut-off is given here; in the data, active means T/C of 150% or more; inactive means T/C below 125%.

Test system: L1210 leukemia ip in BDF1 mice, survival T/C
Assay: NCI In Vivo Anticancer Drug Screen. Data for tumor model L1210 Leukemia (intraperitoneal) in B6D2F1 (BDF1) mice
Conditions: endpoint: mean survival time, higher = longer survival
In short: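 Read-out is survival time, reported as the treated-group measurement over the vehicle-control measurement.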

[1] = dose: 50.0 mg/kg/injection, schedule: Q04DX003 (ip), vehicle: Klucel (hydroxypropylcellulose) (HPC)
[2] = dose: 100.0 mg/kg/injection, schedule: Q04DX003 (ip), vehicle: Klucel (hydroxypropylcellulose) (HPC)
[3] = dose: 200.0 mg/kg/injection, schedule: Q04DX003 (ip), vehicle: Klucel (hydroxypropylcellulose) (HPC)
[4] = dose: 400.0 mg/kg/injection, schedule: Q04DX003 (ip), vehicle: Klucel (hydroxypropylcellulose) (HPC)
[5] = dose: 50.0 mg/kg/injection, schedule: Q01DX009 (ip), vehicle: Klucel (hydroxypropylcellulose) (HPC)
[6] = dose: 100.0 mg/kg/injection, schedule: Q01DX001 (ip), vehicle: saline
[7] = dose: 100.0 mg/kg/injection, schedule: Q01DX009 (ip), vehicle: saline
[8] = dose: 100.0 mg/kg/injection, schedule: Q04DX003 (ip), vehicle: saline
[9] = dose: 200.0 mg/kg/injection, schedule: Q01DX009 (ip), vehicle: saline
[10] = dose: 200.0 mg/kg/injection, schedule: Q04DX003 (ip), vehicle: saline
[11] = dose: 400.0 mg/kg/injection, schedule: Q01DX009 (ip), vehicle: saline
[12] = dose: 400.0 mg/kg/injection, schedule: Q04DX003 (ip), vehicle: saline
[13] = dose: 100.0 mg/kg/injection, schedule: Q01DX009 (ip), vehicle: Klucel (hydroxypropylcellulose) (HPC)
[14] = dose: 200.0 mg/kg/injection, schedule: Q01DX009 (ip), vehicle: Klucel (hydroxypropylcellulose) (HPC)
[15] = dose: 400.0 mg/kg/injection, schedule: Q01DX009 (ip), vehicle: Klucel (hydroxypropylcellulose) (HPC)
[16] = dose: 100.0 mg/kg/injection, schedule: Q01DX001 (ip), vehicle: carboxymethylcellulose (CMC)
[17] = dose: 200.0 mg/kg/injection, schedule: Q01DX001 (ip), vehicle: carboxymethylcellulose (CMC)
[18] = dose: 400.0 mg/kg/injection, schedule: Q01DX001 (ip), vehicle: carboxymethylcellulose (CMC)
[19] = dose: 100.0 mg/kg/injection, schedule: Q04DX003 (ip), vehicle: saline with Tween-80
[20] = dose: 200.0 mg/kg/injection, schedule: Q04DX003 (ip), vehicle: saline with Tween-80
[21] = dose: 400.0 mg/kg/injection, schedule: Q04DX003 (ip), vehicle: saline with Tween-80
[22] = dose: 50.0 mg/kg/injection, schedule: Q01DX009 (ip), vehicle: saline with Tween-80

Measured: T/C

CSC(=NC#N)SC
inactive: dose: 1.5 mg/kg/injection, schedule: Q01DX009 (ip), vehicle: Klucel (hydroxypropylcellulose) (HPC) 100 % of control | dose: 1.5 mg/kg/injection, schedule: Q04DX003 (ip), vehicle: Klucel (hydroxypropylcellulose) (HPC) 100 % of control | dose: 3.0 mg/kg/injection, schedule: Q01DX009 (ip), vehicle: Klucel (hydroxypropylcellulose) (HPC) 101 % of control | dose: 3.0 mg/kg/injection, schedule: Q04DX003 (ip), vehicle: Klucel (hydroxypropylcellulose) (HPC) 90 % of control | dose: 6.0 mg/kg/injection, schedule: Q01DX009 (ip), vehicle: Klucel (hydroxypropylcellulose) (HPC) 95 % of control | dose: 6.0 mg/kg/injection, schedule: Q04DX003 (ip), vehicle: Klucel (hydroxypropylcellulose) (HPC) 97 % of control

CC(C)OC(=O)NC1C=CC=CC=C1
inactive: [1] 98 % of control | [2] 93 % of control | [3] 104 % of control | [4] 106 % of control

CC1=CC(=Nc2ccc(N(CCCl)CCCl)cc2)C=CC1=O
inactive: [5] 110 % of control

Cc1cc2nc(N)sc2cc1C
inactive: dose: 25.0 mg/kg/injection, schedule: Q01DX009 (ip), vehicle: Klucel (hydroxypropylcellulose) (HPC) 101 % of control | [1] 100 % of control | [2] 89 % of control

CCCCOB(OCCCC)OCCCC
inactive: dose: 50.0 mg/kg/injection, schedule: Q01DX001 (ip), vehicle: saline 104 % of control | [6] 95 % of control | dose: 200.0 mg/kg/injection, schedule: Q01DX001 (ip), vehicle: saline 90 % of control | dose: 400.0 mg/kg/injection, schedule: Q01DX001 (ip), vehicle: saline 106 % of control

CN1CN2c3ccccc3CCC2C2CCCC21 (centres undefined)
inactive: dose: 50.0 mg/kg/injection, schedule: Q04DX002 (ip), vehicle: saline with Tween-80 104 % of control | dose: 100.0 mg/kg/injection, schedule: Q04DX002 (ip), vehicle: saline with Tween-80 96 % of control | dose: 200.0 mg/kg/injection, schedule: Q04DX002 (ip), vehicle: saline with Tween-80 101 % of control

NC(=O)N1OCC(N)C1=O (centres undefined)
inactive: [7] 101 % of control | [8] 108 % of control | [9] 87 % of control | [10] 98 % of control | [11] 95 % of control | [12] 97 % of control

Nc1nc(N)nc(-c2ccc(-n3nnc4ccccc4c3=O)cc2)n1
inactive: [13] 90 % of control | [2] 96 % of control | [14] 93 % of control | [3] 96 % of control | [15] 90 % of control | [4] 91 % of control

O=C1OC(=O)C23CC=CCC12CC=CC3 (centres undefined)
inactive: dose: 50.0 mg/kg/injection, schedule: Q01DX001 (ip), vehicle: carboxymethylcellulose (CMC) 104 % of control | [16] 113 % of control | [17] 102 % of control | [18] 104 % of control

Cc1cccc(C)c1NC(=O)COc1ccc(Cl)cc1
inactive: [13] 105 % of control | [2] 95 % of control | [14] 86 % of control | [3] 93 % of control | [15] 97 % of control | [4] 91 % of control

COc1cc(CCl)cc(OC)c1OC
inactive: [13] 95 % of control | [2] 93 % of control | [14] 90 % of control | [3] 95 % of control | [15] 88 % of control | [4] 97 % of control

N#CC(C#N)=NNc1ccc(S(=O)(=O)O)cc1
inactive: [19] 94 % of control | [20] 107 % of control | [21] 102 % of control

COc1ccc(Br)cc1CCCO
inactive: [19] 94 % of control | [20] 92 % of control | [21] 95 % of control

COc1cc([N+](=O)[O-])c(C)cc1NC(=O)c1ccc(OC)c(OC)c1
inactive: dose: 50.0 mg/kg/injection, schedule: Q01DX009 (ip), vehicle: saline 97 % of control | [7] 96 % of control | [8] 89 % of control | [9] 96 % of control | [10] 93 % of control | [11] 97 % of control | [12] 91 % of control

c1ccc2cc3c(cc2c1)Nc1ccncc1N3
inactive: dose: 12.5 mg/kg/injection, schedule: Q01DX009 (ip), vehicle: saline with Tween-80 106 % of control | dose: 25.0 mg/kg/injection, schedule: Q01DX009 (ip), vehicle: saline with Tween-80 103 % of control | [22] 100 % of control

CN(NC(=O)CC(=O)NN(C)C(=S)c1ccc(Cl)cc1)C(=S)c1ccc(Cl)cc1
inactive: dose: 25.0 mg/kg/injection, schedule: Q01DX009 (ip), vehicle: gum acacia 96 % of control | dose: 25.0 mg/kg/injection, schedule: Q04DX003 (ip), vehicle: gum acacia 92 % of control | dose: 50.0 mg/kg/injection, schedule: Q01DX009 (ip), vehicle: gum acacia 91 % of control | dose: 50.0 mg/kg/injection, schedule: Q04DX003 (ip), vehicle: gum acacia 93 % of control | dose: 100.0 mg/kg/injection, schedule: Q01DX009 (ip), vehicle: gum acacia 89 % of control | dose: 100.0 mg/kg/injection, schedule: Q04DX003 (ip), vehicle: gum acacia 90 % of control | dose: 200.0 mg/kg/injection, schedule: Q04DX003 (ip), vehicle: gum acacia 86 % of control | dose: 400.0 mg/kg/injection, schedule: Q04DX003 (ip), vehicle: gum acacia 92 % of control

COc1ccccc1NC(=O)NO
inactive: [16] 97 % of control | [17] 97 % of control | [18] 100 % of control

COc1cc(/C=N\NC(=O)OC(C)(C)C)cc(OC)c1OC
inactive: [22] 95 % of control | dose: 100.0 mg/kg/injection, schedule: Q01DX009 (ip), vehicle: saline with Tween-80 97 % of control | [19] 87 % of control | dose: 200.0 mg/kg/injection, schedule: Q01DX009 (ip), vehicle: saline with Tween-80 97 % of control | [20] 91 % of control

CSc1nc(Cl)c(Cl)c(SC)n1 (tested in a mixture with another compound)
inactive: [5] 87 % of control | [13] 87 % of control

CCOC(=O)c1c(C)[nH]c2c1C(=O)C(=O)C=C2
inactive: [6] 90 % of control

CC(CCc1ccc(O)cc1)OC=O (centres undefined)
inactive: dose: 222.0 mg/kg/injection, schedule: Q01DX Z (ip), vehicle: saline 104 % of control | dose: 333.0 mg/kg/injection, schedule: Q01DX Z (ip), vehicle: saline 91 % of control

Cc1c2ccc3ccccc3c2cc2cccc(C#N)c12
inactive: dose: 100.0 mg/kg/injection, schedule: Q01DX001 (ip), vehicle: Klucel (hydroxypropylcellulose) (HPC) 106 % of control | dose: 200.0 mg/kg/injection, schedule: Q01DX001 (ip), vehicle: Klucel (hydroxypropylcellulose) (HPC) 98 % of control | dose: 400.0 mg/kg/injection, schedule: Q01DX001 (ip), vehicle: Klucel (hydroxypropylcellulose) (HPC) 98 % of control
